Columns and labels:
[1] = tested on: mixed primary neuronal culture; experiment: LDH release assay in mixed primary neuronal culture; format: cell-based, mouse; details: 1 mM BMAA, 24 h
Description: Mouse hippocampal neuronal cultures were prepared from d 18 embryos as previously described (1). Briefly, C57BL/6 pregnant female mice from Charles River Laboratories were killed by cervical dislocation. All studies were performed in accordance with the recommendations in the Guide for the Care and Use of Laboratory Animals of the National Institutes of Health (2). The protocol was approved by Institutional Animal Care and Use Committee of the New York Institute for Basic Research in Developmental Disabilities. All surgeries were performed under anesthesia, and all efforts were made to minimize suffering. Embryos were removed and placed in cold Hibernate A (BrainBits, LLC), and all the following steps were performed in ice-cold Hibernate A, under a stereoscopic (dissection) microscope placed in a laminar flow hood. Fetal brains were removed carefully, and forebrains were separated. The hippocampus, including the cortex surrounding the area of the hippocampus, was dissected and cut into small pieces using microsurgical scissors. […]

motor neurons = details: cited from earlier work
tau = experiment: Tau phosphorylation (Western blots, immunofluorescence) in mouse hippocampal primary neurons; format: cell-based
Description: Mouse hippocampal neuronal cultures were prepared from d 18 embryos as previously described (1). Briefly, C57BL/6 pregnant female mice from Charles River Laboratories were killed by cervical dislocation. All studies were performed in accordance with the recommendations in the Guide for the Care and Use of Laboratory Animals of the National Institutes of Health (2). The protocol was approved by Institutional Animal Care and Use Committee of the New York Institute for Basic Research in Developmental Disabilities. All surgeries were performed under anesthesia, and all efforts were made to minimize suffering. Embryos were removed and placed in cold Hibernate A (BrainBits, LLC), and all the following steps were performed in ice-cold Hibernate A, under a stereoscopic (dissection) microscope placed in a laminar flow hood. Fetal brains were removed carefully, and forebrains were separated. The hippocampus, including the cortex surrounding the area of the hippocampus, was dissected and cut into small pieces using microsurgical scissors. The cut tissue was transferred with number 5 forceps to 15-mL tubes containing 0.1% trypsin in Versene (Invitrogen Life Technologies) and was incubated for 15 min at 37° C. followed by inactivation with 10% (vol/vol) FBS in Neurobasal complete medium (Neurobasal Medium supplemented with 2×B-27, 0.30% glutamine, 10% FBS, and penicillin/streptomycin, 0.1 mg/mL and 0.1 U/mL respectively). After 3 d, the cells were grown with Neurobasal medium supplemented with only 2×B-27. This procedure typically yields cultures that contain 70-75% neurons and […] supporting cells (3). The cultures were maintained at 37° C. in a humidified atmosphere containing 5% CO2 for 8 or 9 d before experimentation. Every 72 h, the medium was replaced with fresh medium. All medium components were purchased from Invitrogen. The neuronal transfection was performed using Lipofectamine LTX and Plus reagent at 5 d in vitro according to the manufacturer's instructions (Invitrogen). The cells were processed for immunofluorescent staining 3 d after transfection.
Protein was fractionated by 10% SDS/PAGE, transferred to PVDF membrane, and then blocked with 5% skim milk for 1 h at room temperature. The membrane was probed with anti-IPP2A (5G6, 1:1, 500) (7), anti-I2P2A (10E7, 1:1, 600) (7), anti-tau ˜92e; 1:5,000) (8), anti-tau (R134d; 1:5 000) (9), anti-tau pSer^262/^356 (12E8; 1:500) (10, anti-tau pSer^199, anti-tau pThr^205, anti-tau pThr^212, and pSer^396 (1:1,000) (Biosource), anti-GAPDH (1:2,000) (Santa Cruz Biotechnology), anti-PP2Ac (1:10 000) (BD Transduction Lab), anti pY^307-PP2A and anti-DML^309-PP2A (1:1,000) (Millipore), anti-GSK-3(α/β), anti-pS^9-GSK-3 β, anti-ERK1/2, anti-pT^202/Y^204-ERK1/2, anti-MEK1/2, anti-p9^17/221-MEK1/2, anti-CAMKII, anti-pT^286-CAMKII, anti-p70 S6 kinase, anti-pT^389-p70 S6 kinase, anti-SAPK/JNK, and anti-pT^183/Y^185-SAPK/JNK (1:1,000) (Cell Signaling Technology). The membrane then was incubated with HRP-conjugated secondary antibody (Jackson ImmunoResearch). The protein bands were detected with the enhanced chemiluminescence reagents (Thermo Scientific). Band intensity was measured by Multi-Gauge V3 software (Fuji Photo Film).
Primary hippocampal neuronal cultures grown on four-chamber glass slides were fixed in cold 4% (wt/vol) paraformaldehyde for 15 min and permeabilized in 0.1% Triton X-100 for 15 min followed by incubation in 5% goat serum to block the nonspecific staining for 1 h. The cells then were probed with 12E8 (1:200) overnight at 4° C. Alexa-488-conjugated anti-mouse secondary antibody (1:500) (Jackson Laboratory) was used for fluorescent labeling. The cells on slides were rinsed with PBS, mounted with Fluorogel (Electron Microscopy Sciences) and examined under laser confocal microscope (Nikon Eclipse 90i). […]

PP2A = experiment: i.c.v. infusion of BMAA in neonatal rats: PP2Ac Tyr307 phosphorylation and PP2A activity; format: in vivo, rat; details: i.c.v. BMAA 1.3 μmol
Description: Wistar rats were bred and maintained under standard environmental conditions (12-h light/dark cycles, 22° C.) and were allowed free access to food and water. The animal experiments were carried out in strict compliance with protocols approved by the Animal Welfare Committee of New York State Institute for Basic Research in Developmental Disabilities. On postnatal d 2 (PND2), pups were individually cryo-anesthetized on ice, and 2 μL of 1.3 μmol BMAA in PBS was injected into lateral ventricle using a 10-μL Hamilton syringe (Hamilton Syringe Co.). Control animals were injected with PBS in an identical manner. After infusion of BMAA, rats were killed within 1, 24, 48, 72, or 96 h, and the brains were used for Western blots and PP2A activity assays.
PP2A activity was assayed with homogenate of rat brain slices using the phosphatase ELISA described previously (5). Briefly, 96-well plates were precoated with a 17-aa phosphopeptide corresponding to tau amino acids 194-207 in which […] was replaced with phosphoserine and to which KKK were added at the C terminus (coating buffer, 35 mM NaHCO3). After overnight blocking with a protein-free blocking solution (Pierce), the enzymatic reaction was performed by adding 2 μg of cell lysate protein in 60 μL of reaction buffer [50 mM TrisHCl (pH 7.0), 2 mM MnCl2, 0.1 mg/mL BSA, 20 mM (β-mercaptoethanol] at 30° C. for 30 min (in the presence or absence of 15 nM of okadaic acid) in a moist chamber. The reaction was stopped by adding 150 μL of Pierce blocking solution containing 50 mM NaF, followed by an overnight incubation with monoclonal antibody Tau-1, which recognizes tau unphosphorylated at Ser^198, Ser^199, and Ser^202. HRP-conjugated secondary antibody treatment was for 60 min at room temperature. Finally 75 μL of 3,3′,5,5′-Tetramethylbenzidine substrate reagent (Sigma) was added, and the colorimetric development was measured using a microtiter plate reader at a wavelength of 650 nm.
Protein was fractionated by 10% SDS/PAGE, transferred to PVDF membrane, and then blocked with 5% skim milk for 1 h at room temperature. […] The protein bands were detected with the enhanced chemiluminescence reagents (Thermo Scientific). Band intensity was measured by Multi-Gauge V3 software (Fuji Photo Film).

[2] = BMAA 1 mM vs controls, Western blots, P<0.01
[3] = BMAA 1 mM vs controls, Western blots, P<0.05

For `CNC[C@H](N)C(=O)O` [BMAA, β-N-methylamino-L-alanine], the “cell death (LDH release)” value [1] is listed as “caused cell death”, the “BMAA concentration causing selective death of motor neurons” value (motor neurons) is listed as no less than 30 µM and the “hyperphosphorylation of tau at Ser396” value (tau; BMAA 1 mM vs controls, Western blots) is listed as “not at Ser^396”. The “hyperphosphorylation of tau at Ser262/356 (12E8 site)” value (tau; [2]) was “significantly increased”, the “hyperphosphorylation of tau at Thr205” value (tau; [2]) was “significantly increased” and the “hyperphosphorylation of tau at Ser199” value (tau; [3]) was “significantly increased”. The “hyperphosphorylation of tau at Thr212” value (tau; [3]) was “significantly increased”, the “expression of tau phosphorylated at Ser262/356” value (tau; immunohistofluorescent analysis, 12E8 staining, BMAA-treated primary neurons) was “increased” and the “PP2A activity in rat brain” value (PP2A) was “decreased”. For the same compound, the “time at which the decrease in PP2A activity was most significant” value (PP2A) was 48 h, the “time by which pTyr307-PP2Ac decreased to a normal level” value (PP2A) was 72-96 h and the “level of phosphorylation of PP2Ac at Tyr307 in rat brains” value (PP2A; for 24-48 h) was “increased markedly”.

Source: patent publication US10335400B2, “Treatment of tauopathies with mGluR5 antagonists” (priority 2014, dated 2019)
